# From PubChem BioAssay (NCI)
#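 Assay format: 96-well plates, 48-hour exposure. GI50 is the concentration that inhibits growth by half. The concentration for full growth arrest is given as TGI.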
# How the values were obtained:
# Test in all cases: inhibition of tumour cell growth, NCI panel, 48 h
# SF-268 CNS = tested on: SF-268 CNS
# SN12C renal = tested on: SN12C renal
# HCT-15 colon = tested on: HCT-15 colon
# M14 melanoma = tested on: M14 melanoma
# SK-MEL-2 melanoma = tested on: SK-MEL-2 melanoma
# CCRF-CEM leukemia = tested on: CCRF-CEM leukemia
# DU-145 prostate = tested on: DU-145 prostate
# HT29 colon = tested on: HT29 colon
# HOP-62 NSCLC = tested on: HOP-62 NSCLC
# SW-620 colon = tested on: SW-620 colon
# MALME-3M melanoma = tested on: MALME-3M melanoma
# OVCAR-8 ovarian = tested on: OVCAR-8 ovarian
# HCC-2998 colon = tested on: HCC-2998 colon
# HOP-92 NSCLC = tested on: HOP-92 NSCLC
# U251 CNS = tested on: U251 CNS
# MCF7 breast = tested on: MCF7 breast
# OVCAR-4 ovarian = tested on: OVCAR-4 ovarian
# UO-31 renal = tested on: UO-31 renal
# NCI-H522 lung = tested on: NCI-H522 lung
# RXF 393 renal = tested on: RXF 393 renal
# HL-60(TB) leukemia = tested on: HL-60(TB) leukemia
# SK-OV-3 ovarian = tested on: SK-OV-3 ovarian
# NCI-H226 lung = tested on: NCI-H226 lung
# IGROV1 ovarian = tested on: IGROV1 ovarian
# A498 renal = tested on: A498 renal
# HS 578T breast = tested on: HS 578T breast
# PC-3 prostate = tested on: PC-3 prostate
# UACC-257 melanoma = tested on: UACC-257 melanoma
# SNB-75 CNS = tested on: SNB-75 CNS
# NCI/ADR-RES ovarian = tested on: NCI/ADR-RES ovarian
# MDA-MB-231 breast = tested on: MDA-MB-231 breast
# CAKI-1 renal = tested on: CAKI-1 renal
# K-562 leukemia = tested on: K-562 leukemia
# 786-0 renal = tested on: 786-0 renal
# SNB-19 CNS = tested on: SNB-19 CNS
# MOLT-4 leukemia = tested on: MOLT-4 leukemia
# NCI-H23 lung = tested on: NCI-H23 lung
# SK-MEL-5 melanoma = tested on: SK-MEL-5 melanoma
# KM12 colon = tested on: KM12 colon
# HCT-116 colon = tested on: HCT-116 colon
# EKVX NSCLC = tested on: EKVX NSCLC
# BT-549 breast = tested on: BT-549 breast
# COLO 205 colon = tested on: COLO 205 colon
# T-47D breast = tested on: T-47D breast
# SK-MEL-28 melanoma = tested on: SK-MEL-28 melanoma
# UACC-62 melanoma = tested on: UACC-62 melanoma
# NCI-H460 lung = tested on: NCI-H460 lung
# A549 NSCLC = tested on: A549 NSCLC
# SR leukemia = tested on: SR leukemia
# ACHN renal = tested on: ACHN renal
# MDA-MB-435 = tested on: MDA-MB-435
# SF-295 CNS = tested on: SF-295 CNS
# OVCAR-5 ovarian = tested on: OVCAR-5 ovarian
# TK-10 renal = tested on: TK-10 renal
# SF-539 CNS = tested on: SF-539 CNS
smiles,measurement,setting,value
NS(=O)(=O)c1ccc(Nc2nc(N/N=C/c3ccc(C(F)(F)F)cc3)nc(Nc3ccccc3)n2)cc1,GI50,SF-268 CNS,3.51 µM
same,TGI,SF-268 CNS,14 µM
same,GI50,SN12C renal,3 µM
same,TGI,SN12C renal,10.2 µM
same,GI50,HCT-15 colon,2.32 µM
same,TGI,HCT-15 colon,6.48 µM
same,GI50,M14 melanoma,2.51 µM
same,TGI,M14 melanoma,6.45 µM
same,GI50,SK-MEL-2 melanoma,2.17 µM
same,TGI,SK-MEL-2 melanoma,5 µM
same,GI50,CCRF-CEM leukemia,3 µM
same,TGI,CCRF-CEM leukemia,> 100 µM
same,GI50,DU-145 prostate,3.31 µM
same,TGI,DU-145 prostate,11 µM
same,GI50,HT29 colon,2.44 µM
same,TGI,HT29 colon,5.78 µM
same,GI50,HOP-62 NSCLC,2.15 µM
same,TGI,HOP-62 NSCLC,5.78 µM
same,GI50,SW-620 colon,3.3 µM
same,TGI,SW-620 colon,11.1 µM
same,GI50,MALME-3M melanoma,1.87 µM
same,TGI,MALME-3M melanoma,3.9 µM
same,GI50,OVCAR-8 ovarian,2.82 µM
same,TGI,OVCAR-8 ovarian,10.4 µM
same,GI50,HCC-2998 colon,2.97 µM
same,TGI,HCC-2998 colon,9.04 µM
same,GI50,HOP-92 NSCLC,2.38 µM
same,TGI,HOP-92 NSCLC,6.31 µM
same,GI50,U251 CNS,2.68 µM
same,TGI,U251 CNS,11.3 µM
same,GI50,MCF7 breast,2.18 µM
same,TGI,MCF7 breast,7.37 µM
same,GI50,OVCAR-4 ovarian,3.69 µM
same,TGI,OVCAR-4 ovarian,64.8 µM
same,GI50,UO-31 renal,1.88 µM
same,TGI,UO-31 renal,4.64 µM
same,GI50,NCI-H522 lung,2.66 µM
same,TGI,NCI-H522 lung,7.77 µM
same,GI50,RXF 393 renal,1.82 µM
same,TGI,RXF 393 renal,4.65 µM
same,GI50,HL-60(TB) leukemia,3.59 µM
same,TGI,HL-60(TB) leukemia,> 100 µM
same,GI50,SK-OV-3 ovarian,3.66 µM
same,TGI,SK-OV-3 ovarian,33.8 µM
same,GI50,NCI-H226 lung,2.45 µM
same,TGI,NCI-H226 lung,6.22 µM
same,GI50,IGROV1 ovarian,2.64 µM
same,TGI,IGROV1 ovarian,7.42 µM
same,GI50,A498 renal,2.61 µM
same,TGI,A498 renal,9.26 µM
same,GI50,HS 578T breast,3.07 µM
same,TGI,HS 578T breast,> 100 µM
same,GI50,PC-3 prostate,2.8 µM
same,TGI,PC-3 prostate,9.72 µM
same,GI50,UACC-257 melanoma,2.42 µM
same,TGI,UACC-257 melanoma,7.26 µM
same,GI50,SNB-75 CNS,2.05 µM
same,TGI,SNB-75 CNS,6.24 µM
same,GI50,NCI/ADR-RES ovarian,12.3 µM
same,TGI,NCI/ADR-RES ovarian,75.7 µM
same,GI50,MDA-MB-231 breast,2.31 µM
same,TGI,MDA-MB-231 breast,5.52 µM
same,GI50,CAKI-1 renal,3.05 µM
same,TGI,CAKI-1 renal,9.93 µM
same,GI50,K-562 leukemia,3.51 µM
same,TGI,K-562 leukemia,12.8 µM
same,GI50,786-0 renal,2.22 µM
same,TGI,786-0 renal,5.2 µM
same,GI50,SNB-19 CNS,3.46 µM
same,TGI,SNB-19 CNS,11.4 µM
same,GI50,MOLT-4 leukemia,3.06 µM
same,TGI,MOLT-4 leukemia,14.4 µM
same,GI50,NCI-H23 lung,1.95 µM
same,TGI,NCI-H23 lung,4.25 µM
same,GI50,SK-MEL-5 melanoma,1.74 µM
same,TGI,SK-MEL-5 melanoma,3.18 µM
same,GI50,KM12 colon,2.38 µM
same,TGI,KM12 colon,5.61 µM
same,GI50,HCT-116 colon,3.1 µM
same,TGI,HCT-116 colon,10.3 µM
same,GI50,EKVX NSCLC,2.62 µM
same,TGI,EKVX NSCLC,8.51 µM
same,GI50,BT-549 breast,2.79 µM
same,TGI,BT-549 breast,9.48 µM
same,GI50,COLO 205 colon,1.86 µM
same,TGI,COLO 205 colon,4.37 µM
same,GI50,T-47D breast,2.48 µM
same,TGI,T-47D breast,9.78 µM
same,GI50,SK-MEL-28 melanoma,2.44 µM
same,TGI,SK-MEL-28 melanoma,7.37 µM
same,GI50,UACC-62 melanoma,2.35 µM
same,TGI,UACC-62 melanoma,5.33 µM
same,GI50,NCI-H460 lung,3.02 µM
same,TGI,NCI-H460 lung,8.89 µM
same,GI50,A549 NSCLC,3.11 µM
same,TGI,A549 NSCLC,11.6 µM
same,GI50,SR leukemia,3.07 µM
same,TGI,SR leukemia,15.3 µM
same,GI50,ACHN renal,2.68 µM
same,TGI,ACHN renal,7.59 µM
same,GI50,MDA-MB-435,2.07 µM
same,TGI,MDA-MB-435,4.44 µM
same,GI50,SF-295 CNS,1.92 µM
same,TGI,SF-295 CNS,4.07 µM
same,GI50,OVCAR-5 ovarian,2.96 µM
same,TGI,OVCAR-5 ovarian,11 µM
same,GI50,TK-10 renal,3.45 µM
same,TGI,TK-10 renal,10.5 µM
same,GI50,SF-539 CNS,1.86 µM
same,TGI,SF-539 CNS,4.23 µM
